We go through one compound from article PMC9253107, “Engineering of ultraID, a compact and hyperactive enzyme for proximity-dependent biotinylation in living cells” (Communications Biology, 2022).

The target of the experiment is T1, microID (BioID2 [2-171]); with L41P = ultraID (Aquifex aeolicus, UniProt O66837, R40G/L41P).
T1 construct: gene birA; pET22b, E. coli BL21(DE3), IMAC purified
As to the kind of experiment: ELISA-based biotinylation assay, streptavidin-alkaline phosphatase. The note with it: 50 µM biotin, 2.5 mM ATP, 5 mM MgCl2, pH 7.5, 37 °C, 10 min; acceptor human serum albumin. The format is biochemical. On the technique in general: In an ELISA, binding on a coated surface is turned into a signal by an enzyme label.

T1 sequence (O66837 entry or part of it R40G/L41P): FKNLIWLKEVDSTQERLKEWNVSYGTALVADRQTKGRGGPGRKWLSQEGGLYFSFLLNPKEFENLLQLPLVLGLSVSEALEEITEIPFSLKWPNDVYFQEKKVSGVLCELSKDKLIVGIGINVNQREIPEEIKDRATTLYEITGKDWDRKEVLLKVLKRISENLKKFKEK

Take `O=C(O)CCCC[C@@H]1SC[C@@H]2NC(=O)N[C@@H]21` [biotin]: the “ELISA-based biotinylation assay, streptavidin-alkaline phosphatase” value is listed as “combined R40G/L41P mutations showed the highest activity of all tested variants”.
